One block for each molecule: values may come before it.
How the values were obtained:
[1] = system: T1, Elg1-RFC; test: cryo-EM structure, […] Å; type: binding, Saccharomyces cerevisiae
T1 construct: heteropentamer; 3xFLAG-Elg1 and Rfc5 (pLANT-2RIL) with Rfc2, Rfc3, Rfc4 (pET11a) co-expressed in E. coli BLR(DE3) (results text says expressed in yeast); anti-FLAG and MonoS; no tag removal told

[2] = system: T2, Elg1-RFC–PCNA; test: cryo-EM structure, […] Å (closed PCNA) and […] Å (cracked PCNA); type: binding, Saccharomyces cerevisiae; settings: glutaraldehyde cross-linked
T2 construct: with Proliferating cell nuclear antigen
T2 sequence (P40348 whole entry, one chain of several, further chain): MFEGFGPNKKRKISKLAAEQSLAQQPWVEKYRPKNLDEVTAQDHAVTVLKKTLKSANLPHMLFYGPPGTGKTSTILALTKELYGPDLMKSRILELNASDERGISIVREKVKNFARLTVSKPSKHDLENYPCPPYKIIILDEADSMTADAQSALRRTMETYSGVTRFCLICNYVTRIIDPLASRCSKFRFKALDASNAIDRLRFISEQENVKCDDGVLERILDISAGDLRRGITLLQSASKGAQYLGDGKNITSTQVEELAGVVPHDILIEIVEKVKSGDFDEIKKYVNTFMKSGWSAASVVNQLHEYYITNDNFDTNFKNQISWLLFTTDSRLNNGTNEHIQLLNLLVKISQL
T2 sequence (P38251 whole entry, one chain of several, further chain): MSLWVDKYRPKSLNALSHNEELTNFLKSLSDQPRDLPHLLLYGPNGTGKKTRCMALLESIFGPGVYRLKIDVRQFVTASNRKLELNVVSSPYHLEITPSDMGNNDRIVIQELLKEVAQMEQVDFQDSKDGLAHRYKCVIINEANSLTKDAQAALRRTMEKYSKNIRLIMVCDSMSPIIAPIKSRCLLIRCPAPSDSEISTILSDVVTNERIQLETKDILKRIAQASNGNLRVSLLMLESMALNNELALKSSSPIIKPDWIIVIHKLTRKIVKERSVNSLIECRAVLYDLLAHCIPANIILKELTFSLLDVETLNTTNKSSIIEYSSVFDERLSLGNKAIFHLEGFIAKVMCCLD

[3] = system: T1, Elg1-RFC; test: […]-PCNA unloading from nicked plasmid, gel filtration; type: biochemical, Saccharomyces cerevisiae; settings: 2 mM AMP-PNP, 56 nM Elg1-RFC, 0.69 nM 32P-PCNA-DNA, 8 mM MgCl2, 100 mM NaCl, pH 7.5, 30 °C, 2 min; supports unloading without hydrolysis
[4] = target: T3, Rfc4, subunit of Elg1-RFC (S. cerevisiae, UniProt P40339 1-323); test: cryo-EM structure; Elg1-RFC 2.9 uM, PCNA clamp 1.3 uM, 5'-tailed DNA 28.7 uM, ATPgammaS 0.5 mM, Mg-acetate 6.7 mM, ice-water bath, then cross-linked with glutaraldehyde and quenched with Tris; no DNA seen in the maps; closed and cracked PCNA ring; settings: both partners purified
T3 construct: Rfc4, S. cerevisiae replication factor C subunit 4; Stood in the assay as a subunit of the Elg1-RFC pentamer; source: E. coli BLR(DE3), co-expressed with Elg1 and Rfc2, 3, 5, purified as Elg1-RFC (anti-FLAG resin, MonoS)
T3 sequence: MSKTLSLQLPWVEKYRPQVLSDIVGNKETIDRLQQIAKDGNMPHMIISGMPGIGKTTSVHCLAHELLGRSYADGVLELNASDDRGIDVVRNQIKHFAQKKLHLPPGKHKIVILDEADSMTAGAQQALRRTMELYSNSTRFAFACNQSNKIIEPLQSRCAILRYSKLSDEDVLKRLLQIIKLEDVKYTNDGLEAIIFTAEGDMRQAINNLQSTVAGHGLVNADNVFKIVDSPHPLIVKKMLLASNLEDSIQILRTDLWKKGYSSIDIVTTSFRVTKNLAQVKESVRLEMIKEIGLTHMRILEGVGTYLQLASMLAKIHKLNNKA

[5] = target: the molecule itself; test: as above
[6] = target: T4, Elg1 (enhanced levels of genome instability 1), subunit of Elg1-RFC (S. cerevisiae, UniProt Q12050 1-791); test: as above; settings: both partners purified
T4 construct: Elg1 (enhanced levels of genome instability 1), S. cerevisiae; Stood in the assay as a subunit of the Elg1-RFC pentamer; also called 3xFLAG-Elg1; Elg1 subunit; source: E. coli BLR(DE3), co-expressed with Rfc2-5, purified as Elg1-RFC (anti-FLAG resin, MonoS)
T4 sequence (looked up): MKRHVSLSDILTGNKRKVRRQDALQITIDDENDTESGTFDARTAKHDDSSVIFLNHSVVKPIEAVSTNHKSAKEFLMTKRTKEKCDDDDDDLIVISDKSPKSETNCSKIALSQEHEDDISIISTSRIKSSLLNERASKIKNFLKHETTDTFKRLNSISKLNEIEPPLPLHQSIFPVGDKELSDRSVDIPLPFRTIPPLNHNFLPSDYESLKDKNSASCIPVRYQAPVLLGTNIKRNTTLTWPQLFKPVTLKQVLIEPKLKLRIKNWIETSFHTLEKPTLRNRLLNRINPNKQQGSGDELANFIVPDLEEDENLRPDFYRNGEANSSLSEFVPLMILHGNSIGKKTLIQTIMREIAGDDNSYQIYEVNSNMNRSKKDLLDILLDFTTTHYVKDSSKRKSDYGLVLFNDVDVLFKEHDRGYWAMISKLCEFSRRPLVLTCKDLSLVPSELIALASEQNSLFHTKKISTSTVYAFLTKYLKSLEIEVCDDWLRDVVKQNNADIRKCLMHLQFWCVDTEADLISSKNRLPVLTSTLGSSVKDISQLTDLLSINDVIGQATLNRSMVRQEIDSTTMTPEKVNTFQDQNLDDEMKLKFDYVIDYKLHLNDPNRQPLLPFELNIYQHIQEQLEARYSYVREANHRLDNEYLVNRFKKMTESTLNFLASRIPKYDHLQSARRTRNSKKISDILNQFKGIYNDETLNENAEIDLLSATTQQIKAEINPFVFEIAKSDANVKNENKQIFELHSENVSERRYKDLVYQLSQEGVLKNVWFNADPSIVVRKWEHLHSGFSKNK

[7] = target: T5, Rfc3, subunit of Elg1-RFC (S. cerevisiae, UniProt P38629 1-340); test: as above; settings: both partners purified
T5 construct: Rfc3, S. cerevisiae replication factor C subunit 3; Stood in the assay as a subunit of the Elg1-RFC pentamer; source: E. coli BLR(DE3), co-expressed with Elg1 and Rfc2, 4, 5, purified as Elg1-RFC (anti-FLAG resin, MonoS)
T5 sequence: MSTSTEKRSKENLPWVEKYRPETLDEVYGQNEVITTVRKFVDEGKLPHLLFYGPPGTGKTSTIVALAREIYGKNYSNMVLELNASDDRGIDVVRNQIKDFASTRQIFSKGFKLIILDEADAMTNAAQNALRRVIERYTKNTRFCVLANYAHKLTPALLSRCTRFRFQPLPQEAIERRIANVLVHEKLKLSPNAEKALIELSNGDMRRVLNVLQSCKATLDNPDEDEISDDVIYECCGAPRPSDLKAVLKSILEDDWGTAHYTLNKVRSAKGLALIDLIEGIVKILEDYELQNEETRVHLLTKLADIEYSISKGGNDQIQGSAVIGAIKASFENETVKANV

[8] = site in Rfc5, ADP not listed among added components

T1 sequence (P40348 whole entry, one chain of several, further chain): as the sequence (P40348 whole entry, one chain of several, further chain) above
T1 sequence (P38251 whole entry, one chain of several, further chain): as the sequence (P38251 whole entry, one chain of several, further chain) above

Molecule: Nc1ncnc2c1ncn2[C@@H]1O[C@H](COP(=O)(O)OP(=O)(O)O)[C@@H](O)[C@H]1O [ADP]
cryo-EM structure, 3.2 Å [1, 8]: four ATPγS in Rfc2, Rfc3, Rfc4, and Elg1, and one ADP in Rfc5
cryo-EM structure, 3.3 Å (closed PCNA) and 3.7 Å (cracked PCNA) [2, 8]: In all three Elg1-RFC structures, we found five bound nucleotides

Molecule: Nc1ncnc2c1ncn2[C@@H]1O[C@H](COP(=O)(O)OP(=O)(O)NP(=O)(O)O)[C@@H](O)[C@H]1O [AMP-PNP]
32P-PCNA unloading from nicked plasmid, gel filtration [3]: Elg1-RFC can unload PCNA from DNA with non-hydrolyzable AMP-PNP

Molecule: Nc1ncnc2c1ncn2[C@@H]1O[C@H](COP(=O)(O)OP(=O)(O)OP(O)(O)=S)[C@@H](O)[C@H]1O [ATPγS]
cryo-EM structure, 3.2 Å ([1]; 0.5 mM ATPγS final (1 mM in results text), 6.7 mM Mg-acetate, sites in Rfc2, Rfc3, Rfc4 and Elg1, Elg1 site without Mg density): four ATPγS in Rfc2, Rfc3, Rfc4, and Elg1, and one ADP in Rfc5
cryo-EM structure, 3.3 Å (closed PCNA) and 3.7 Å (cracked PCNA) ([2]; 0.5 mM ATPγS final (1 mM in results text), 6.7 mM Mg-acetate, sites in Rfc2, Rfc3, Rfc4 and Elg1): In all three Elg1-RFC structures, we found five bound nucleotides: four ATPγS in Rfc2, Rfc3

binding result [4]: binds
binding result [6]: binds
binding result [7]: binds
B1: proliferating cell nuclear antigen (PCNA), S. cerevisiae (natural protein)
chain: MLEAKFEEASLFKRIIDGFKDCVQLVNFQCKEDGIIAQAVDDSRVLLVSLEIGVEAFQEYRCDHPVTLGMDLTSLSKILRCGNNTDTLTLIADNTPDSIILLFEDTKKDRIAEYSLKLMDIDADFLKIEELQYDSTLSLPSSEFSKIVRDLSQLSDSINIMITKETIKFVADGDIGSGSVIIKPFVDMEHPETSIKLEMDQPVDLTFGAKYLLDIIKGSSLSDRVGIRLSSEAPALFQFDLKSGFLQFFLAPKFNDEE
notes: PCNA, S. cerevisiae sliding clamp; Homotrimeric ring; In the unloading assays the kinase site was labelled with 32P; also called PCNA clamp; PCNA ring
stoichiometry N [5]: 3

Reference: publication PMC10906927, “Structure of the PCNA unloader Elg1-RFC” (Science Advances, 2024)
